According to ChEMBL document CHEMBL1201862, “PubChem BioAssay data set” (2004):
Active and inactive are the calls of the source.

Key:
[1] = NIH-3T3 fibroblast cytotoxicity, dose response, cytotoxicity control, cell-based, fluorescence, Alamar Blue, secondary assay (AID 2327); type: functional;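 note: NIH-3T3 mouse fibroblasts cultured with fluconazole at 8 µg/mL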
[2] = molecular target: T1, Ubiquitin-conjugating enzyme E2 N (Homo sapiens, UniProt P61088); type: functional;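 note: Dose-response confirmation in a TR-FRET assay detecting UBC13-driven polyubiquitin chain formation, inhibition measured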
T1 sequence (P61088 whole entry): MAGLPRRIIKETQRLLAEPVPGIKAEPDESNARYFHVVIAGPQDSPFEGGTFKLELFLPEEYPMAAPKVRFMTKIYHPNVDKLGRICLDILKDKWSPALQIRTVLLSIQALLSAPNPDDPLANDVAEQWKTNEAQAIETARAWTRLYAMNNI

[3] = molecular target: T2, Apoptotic protease-activating factor 1 (Homo sapiens, UniProt O14727); type: functional
T2 sequence (O14727 whole entry): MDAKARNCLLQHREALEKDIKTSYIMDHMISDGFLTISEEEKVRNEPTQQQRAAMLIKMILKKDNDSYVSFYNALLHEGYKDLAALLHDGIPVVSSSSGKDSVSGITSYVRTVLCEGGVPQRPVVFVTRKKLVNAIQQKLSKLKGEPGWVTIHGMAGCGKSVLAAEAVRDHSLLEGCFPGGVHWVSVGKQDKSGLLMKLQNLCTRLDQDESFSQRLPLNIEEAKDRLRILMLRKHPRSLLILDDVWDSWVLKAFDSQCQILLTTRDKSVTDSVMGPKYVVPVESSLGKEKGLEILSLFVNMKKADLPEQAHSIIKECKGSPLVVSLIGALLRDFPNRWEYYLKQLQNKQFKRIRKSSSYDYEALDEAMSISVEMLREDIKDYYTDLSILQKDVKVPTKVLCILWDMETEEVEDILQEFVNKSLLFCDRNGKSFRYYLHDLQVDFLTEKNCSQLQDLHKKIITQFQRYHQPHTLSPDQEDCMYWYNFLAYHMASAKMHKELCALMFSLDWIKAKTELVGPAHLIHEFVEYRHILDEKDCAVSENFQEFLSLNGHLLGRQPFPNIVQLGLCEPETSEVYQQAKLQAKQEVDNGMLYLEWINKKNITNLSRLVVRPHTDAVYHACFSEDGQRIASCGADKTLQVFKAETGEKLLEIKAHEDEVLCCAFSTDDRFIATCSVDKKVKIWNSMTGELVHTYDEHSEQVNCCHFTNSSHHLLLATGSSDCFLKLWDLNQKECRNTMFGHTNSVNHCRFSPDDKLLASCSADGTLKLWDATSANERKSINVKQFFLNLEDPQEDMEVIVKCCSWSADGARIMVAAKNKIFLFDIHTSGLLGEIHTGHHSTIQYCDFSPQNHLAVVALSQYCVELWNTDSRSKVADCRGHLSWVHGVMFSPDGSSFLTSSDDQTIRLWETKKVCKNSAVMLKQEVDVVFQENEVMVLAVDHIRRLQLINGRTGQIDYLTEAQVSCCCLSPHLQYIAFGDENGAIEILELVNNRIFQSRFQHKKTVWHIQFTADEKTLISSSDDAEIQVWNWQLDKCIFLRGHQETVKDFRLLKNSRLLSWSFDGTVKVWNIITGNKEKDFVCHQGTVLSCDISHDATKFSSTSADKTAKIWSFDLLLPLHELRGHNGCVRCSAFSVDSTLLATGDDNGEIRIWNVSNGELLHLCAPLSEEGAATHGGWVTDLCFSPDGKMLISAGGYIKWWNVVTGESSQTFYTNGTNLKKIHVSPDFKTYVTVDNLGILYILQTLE

[4] = test system: INS1; experiment: beta cell apoptosis inhibitors, cytokine rescue, dose response, luminescence, retest (AID 449756); type: functional, cell-based; settings: Rattus norvegicus;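 note: cell death triggered by IL-1 beta plus TNF-alpha plus IFN-gamma mixture; protective hits raise ATP signal compared with cytokine alone wells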
[5] = molecular target: Prothrombin (Bos taurus, UniProt P00735); experiment: thrombin inhibition, dose response, biochemical, fluorescence polarization, uHTS hits (AID 602369); type: functional
[6] = HeLa cell cytotoxicity, dose response, cytotoxicity control for MgcRacGAP inhibitor project (AID 624300); type: functional
[7] = molecular target: T3, Rac GTPase-activating protein 1 (Homo sapiens, UniProt Q9H0H5); experiment: MgcRacGAP GTPase-activating activity inhibitors, confirmation, biochemical, ADP Hunter fluorescence, primary and confirmatory (AID 624330); type: functional
T3 sequence (Q9H0H5 whole entry): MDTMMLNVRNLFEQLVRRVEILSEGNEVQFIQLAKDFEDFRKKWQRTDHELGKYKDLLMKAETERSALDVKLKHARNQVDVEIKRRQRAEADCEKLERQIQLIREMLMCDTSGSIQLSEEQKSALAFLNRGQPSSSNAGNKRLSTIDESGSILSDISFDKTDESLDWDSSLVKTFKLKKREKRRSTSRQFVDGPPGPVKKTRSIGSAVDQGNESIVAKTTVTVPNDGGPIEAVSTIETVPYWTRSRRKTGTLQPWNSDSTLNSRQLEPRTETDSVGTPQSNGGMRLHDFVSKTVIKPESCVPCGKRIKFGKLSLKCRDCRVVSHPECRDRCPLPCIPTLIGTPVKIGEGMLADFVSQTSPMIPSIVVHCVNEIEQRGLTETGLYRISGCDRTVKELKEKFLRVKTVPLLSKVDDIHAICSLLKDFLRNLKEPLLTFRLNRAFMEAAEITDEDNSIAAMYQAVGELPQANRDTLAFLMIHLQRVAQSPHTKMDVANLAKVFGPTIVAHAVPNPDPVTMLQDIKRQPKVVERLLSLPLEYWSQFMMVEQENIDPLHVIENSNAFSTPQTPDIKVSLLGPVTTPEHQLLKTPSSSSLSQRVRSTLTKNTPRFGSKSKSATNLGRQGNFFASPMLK

[8] = molecular target: T4, DNA repair protein RAD52 homolog (Homo sapiens, UniProt P43351); type: functional, biochemical
T4 sequence (P43351 whole entry): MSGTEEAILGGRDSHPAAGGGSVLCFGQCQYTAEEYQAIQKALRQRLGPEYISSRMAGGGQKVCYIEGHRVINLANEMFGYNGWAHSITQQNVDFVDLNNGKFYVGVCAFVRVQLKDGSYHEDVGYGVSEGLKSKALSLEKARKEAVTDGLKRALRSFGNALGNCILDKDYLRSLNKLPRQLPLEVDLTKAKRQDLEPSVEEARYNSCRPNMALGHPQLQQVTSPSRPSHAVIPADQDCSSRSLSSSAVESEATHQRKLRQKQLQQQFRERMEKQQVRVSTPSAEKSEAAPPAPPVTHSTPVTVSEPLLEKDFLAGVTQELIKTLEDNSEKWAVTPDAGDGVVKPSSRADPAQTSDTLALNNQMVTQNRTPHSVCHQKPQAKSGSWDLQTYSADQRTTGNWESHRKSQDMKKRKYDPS

## N=C(N)N/N=C/c1ccc(N(c2ccccc2)c2ccccc2)cc1
[1]
  EC50: 18.5 µM (inconclusive)
[2]
  IC50: 8.24 µM (active)
[3]
  IC50: 28.2 µM (active)
[4]
  AC50: 7.12 µM (active)
[5]
  IC50: 41.8 µM (active)
[6]
  CC50: 17.1 µM (active)
[7]
  IC50: 60.7 µM (active)
[8]
  AC50: 10.8 µM (active)
